From patent US9617267B2, “Compounds and methods for kinase modulation, and indications therefor” (Plexxikon Inc., priority 2009, dated 2017) come the findings set out here.

In one data set the target is B-Raf V600E (Homo sapiens (Human), UniProt P15056, V600E). Briefly: B-Raf V600E kinase activity biochemical assay (AlphaScreen, biotin-MEK1 phosphorylation). The conditions noted are these: for IC50: B-Raf V600E; for Biochemical activity ratio V600E/C: ratio of IC50 B-Raf V600E / c-Raf-1. As for the experimental part: (§1) Compounds to be tested are diluted in dimethyl sulfoxide to a concentration of 0.1 mM. These are serially diluted 15 μL into 30 μL of dimethyl sulfoxide seven times in 96 well plates for a total of 8 dilution points, and for each dilution point 1 μL is added to a well of an assay plate. […] The reaction is started with addition of 10 μL of 200 μM ATP (i.e. final 100 μM ATP). After incubation of the kinase reaction for 45 minutes at room temperature, 5 μL/well of Stop Solution is added (25 mM Hepes pH 7.5, 100 mM EDTA, 0.01% BSA with donor beads (Streptavidin coated beads, Perkin Elmer), acceptor beads (Protein A coated, Perkin Elmer), and anti phosphor MEK1/2 antibody (CellSignal), each at final concentration 10 μg/mL). The plates are incubated for 3 hours at room temperature and read on Envision reader (Perkin Elmer). […] The signal vs. compound concentration is used to determine the IC50.
A general note: Alpha assays give light when donor and acceptor beads are brought close together.

A further data set addresses c-Raf-1 (Homo sapiens, UniProt P04049). Nature of the data set: c-Raf-1 kinase activity biochemical assay (AlphaScreen, biotin-MEK1 phosphorylation). Here is the method: as §1
Data set [1] is described as follows: Relative solubility by turbidity threshold concentration in aqueous buffers (pH 1.5, 4.5, 6.8, 7.4). Type of data set: physicochemical. Conditions: for turbidity threshold (L, M, H) 1.4: pH 1.4 [sic] (method: SGF pH 1.5); for turbidity threshold (L, M, H) 4.5: pH 4.5 (SIF); for turbidity threshold (L, M, H) 6.8: pH 6.8 (SIF); for turbidity threshold (L, M, H) 7.4: pH 7.4 (HEPES). As for the experimental part: As an indication of relative solubility, the turbidity of compounds in aqueous solutions is assessed. To assess possible compound properties in different physiological compartments, such as stomach, intestine, and blood, a series of aqueous buffers with varying pH is used. Thus each compound is diluted into four different physiologically relevant buffers and solution turbidity is measured by spectrophotometry.
Compounds are dissolved at a concentration of 25 mM in dimethyl sulfoxide, then serially diluted 1:1 into a 96 well plate, diluting 10 times in pure dimethyl sulfoxide, with the final well of each row a dimethyl sulfoxide blank. In an assay plate, 99 μL of appropriate buffer is added to each well, and 1 μL of each sample dilution is added to the buffer, achieving a range of final total concentrations in aqueous solutions having different pH. The buffers used are Simulated Gastric Fluid (SGF-pH 1.5) 0.5M NaCl, pH 1.5; Simulated Intestinal fluid (SIF-pH 4.5 and pH 6.8) 0.05M NaH2PO4, pH 4.5 and 6.8; and Hepes Buffer (HEPES-pH 7.4) 10 mM HEPES, 150 mM NaCl, pH 7.4. Control compounds pyrene, estriol and propranolol HCl are also assessed. Plates are spun and then mixed for 1 minute, and the absorbance is read using a Tecan Safire II to read wavelengths in the visible range (490, 535, and 650 nm) at four locations per well, reflecting the degree of turbidity present. The average optical density for each wavelength in each well is graphed vs. compound concentration, and the concentration at which the curve crosses a threshold O.D. of 0.01 for each wavelength is reported as the endpoint turbidity assay result. The average of the three wavelengths is used to compare turbidity of compounds. Compounds are considered to have low solubility if the threshold concentration is <31.3 μM, moderate solubility if the threshold concentration is 31.3 μM to 250 μM, and high solubility if the threshold concentration is >250 μm.
The following table indicates the relative solubility (L=low, M=moderate, H=high) based on turbidity threshold concentration at each pH for exemplary compounds according to the invention as indicated: […]

A further data set concerns the target CYP2C19 (Homo sapiens (Human), UniProt P33261). Briefly: CYP enzyme inhibition, fluorescent substrate (CEC). The conditions noted are these: read-out: Cyp IC50 2C19; CYP2C19, substrate CEC. As for the experimental part:
CYP (Cytochrome P450) enzymes are the major drug metabolizing enzymes present in the liver. The inhibition of CYP enzyme activity (IC50) for each of CYP1A2, CYP2C19, CYP2C9, CYP2D6, CYP3A4(BFC) and CYP3A4(BQ) is determined for compounds, where inhibition of metabolism of a known substrate leads to a decrease in the fluorescence of the metabolized product. The fluorescence of the product is monitored as a function of compound concentration.
Compounds are dissolved in dimethyl sulfoxide to a concentration of 100 mM. These are diluted 1 μL into 82 μL of acetonitrile. […] These are then serially diluted 1:1 (160 μL to 160 μL co-factor mix) for a total of 10 points. A 10 μL aliquot of this final mixture is dispensed into 384 well assay plates and incubated for 10 minutes at 37° C. […] Assay plates are incubated at 37° C. […] The signal versus compound concentration is used to determine the IC50. The enzymes and substrates for this assay are obtained from BD Biosciences.

Data set [2] concerns B-Raf. Briefly: B-Raf kinase activity biochemical assay (AlphaScreen, biotin-MEK1 phosphorylation). Conditions: for Biochemical activity ratio B/V600E: ratio of IC50 B-Raf / B-Raf V600E; for Biochemical activity ratio B/C: ratio of IC50 B-Raf / c-Raf-1. As for the experimental part:
as §1

The target of data set [3] is B-Raf (Homo sapiens (Human), UniProt P15056). The description is as above. Conditions: B-Raf. Here is the method: as §1
Sequence of B-Raf (Homo sapiens (Human), UniProt P15056) (P15056 whole entry): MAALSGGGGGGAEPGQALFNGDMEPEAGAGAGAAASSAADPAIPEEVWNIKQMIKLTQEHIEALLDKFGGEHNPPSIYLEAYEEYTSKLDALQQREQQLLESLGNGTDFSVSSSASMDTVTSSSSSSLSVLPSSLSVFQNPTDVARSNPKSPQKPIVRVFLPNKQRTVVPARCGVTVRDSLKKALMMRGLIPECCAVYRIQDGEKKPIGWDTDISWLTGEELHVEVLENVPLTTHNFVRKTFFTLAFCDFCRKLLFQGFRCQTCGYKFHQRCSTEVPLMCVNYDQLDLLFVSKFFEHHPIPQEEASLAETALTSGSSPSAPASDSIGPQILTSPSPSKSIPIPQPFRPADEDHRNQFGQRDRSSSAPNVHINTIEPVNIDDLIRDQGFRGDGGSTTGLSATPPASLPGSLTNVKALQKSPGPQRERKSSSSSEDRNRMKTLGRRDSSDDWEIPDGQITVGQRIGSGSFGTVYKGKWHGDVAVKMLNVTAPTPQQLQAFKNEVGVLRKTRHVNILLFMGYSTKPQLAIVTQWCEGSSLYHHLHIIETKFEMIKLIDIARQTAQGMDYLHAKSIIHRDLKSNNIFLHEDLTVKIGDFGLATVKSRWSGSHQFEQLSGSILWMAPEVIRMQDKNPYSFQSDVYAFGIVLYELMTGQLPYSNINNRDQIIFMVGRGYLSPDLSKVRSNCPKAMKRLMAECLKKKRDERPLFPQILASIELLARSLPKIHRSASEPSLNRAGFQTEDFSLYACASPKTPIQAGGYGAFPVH

Sequence of c-Raf-1 (P04049 whole entry, looked up): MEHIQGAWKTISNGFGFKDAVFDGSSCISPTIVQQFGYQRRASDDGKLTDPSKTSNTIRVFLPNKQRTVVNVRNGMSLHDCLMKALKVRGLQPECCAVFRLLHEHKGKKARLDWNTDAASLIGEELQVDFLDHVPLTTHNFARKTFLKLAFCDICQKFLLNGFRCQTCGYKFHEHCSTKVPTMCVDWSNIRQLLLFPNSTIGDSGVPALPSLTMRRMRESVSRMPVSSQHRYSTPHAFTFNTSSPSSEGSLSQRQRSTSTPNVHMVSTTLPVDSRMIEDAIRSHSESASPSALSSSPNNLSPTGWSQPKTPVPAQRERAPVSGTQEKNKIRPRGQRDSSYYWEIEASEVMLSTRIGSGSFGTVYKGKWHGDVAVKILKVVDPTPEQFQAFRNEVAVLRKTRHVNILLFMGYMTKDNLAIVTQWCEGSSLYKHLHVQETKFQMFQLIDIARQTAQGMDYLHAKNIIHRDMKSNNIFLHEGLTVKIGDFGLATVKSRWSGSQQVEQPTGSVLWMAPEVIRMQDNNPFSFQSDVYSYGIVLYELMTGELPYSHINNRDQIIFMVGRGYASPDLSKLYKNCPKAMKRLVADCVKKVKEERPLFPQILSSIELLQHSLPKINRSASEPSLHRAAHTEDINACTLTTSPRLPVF
Sequence of B-Raf V600E (P15056 whole entry V600E): as the sequence (P15056 whole entry) above, with V600E counted along it
Sequence of CYP2C19 (P33261 whole entry): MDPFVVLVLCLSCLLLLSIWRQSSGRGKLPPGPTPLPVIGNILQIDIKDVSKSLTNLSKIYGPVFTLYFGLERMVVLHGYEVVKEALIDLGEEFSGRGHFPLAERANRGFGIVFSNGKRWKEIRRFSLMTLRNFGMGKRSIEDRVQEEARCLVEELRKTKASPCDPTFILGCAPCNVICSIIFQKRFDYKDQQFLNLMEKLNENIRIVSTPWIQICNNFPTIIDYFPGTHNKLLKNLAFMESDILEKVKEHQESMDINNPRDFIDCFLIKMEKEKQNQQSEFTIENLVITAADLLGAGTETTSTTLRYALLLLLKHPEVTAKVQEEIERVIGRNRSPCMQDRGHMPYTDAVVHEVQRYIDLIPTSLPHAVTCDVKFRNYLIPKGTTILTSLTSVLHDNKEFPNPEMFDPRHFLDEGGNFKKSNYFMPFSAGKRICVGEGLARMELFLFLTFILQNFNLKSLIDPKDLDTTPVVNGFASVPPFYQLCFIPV

One may read the IC50 as the concentration that gives 50% inhibition. `CCCS(=O)(=O)Nc1ccc(F)c(C(=O)c2c[nH]c3nccc(NC4CCOCC4)c23)c1F` [P-2013, Propane-1-sulfonic acid {2,4-difluoro-3-[4-(tetrahydro-pyran-4-ylamino)-1H-pyrrolo[2,3-b]pyridine-3-carbonyl]-phenyl}-amide] returned an IC50 at B-Raf V600E of less than 0.1 µM. The molecule further displayed a half-inhibitory concentration (IC50) against c-Raf-1 of less than 0.1 µM. In data set [1], the “turbidity threshold (L, M, H) 1.4” value is reported as “H (high solubility if the threshold concentration is >250 μm)”; the “turbidity threshold (L, M, H) 4.5” value was “H (high solubility if the threshold concentration is >250 μm)”; the “turbidity threshold (L, M, H) 6.8” value is “H (high solubility if the threshold concentration is >250 μm)”; the “turbidity threshold (L, M, H) 7.4” value was “H (high solubility if the threshold concentration is >250 μm)”. The IC50 on CYP2C19 was greater than 10000 nM.

In the case of `N#Cc1ncnc2[nH]cc(C(=O)c3c(F)ccc(NS(=O)(=O)c4ccc(C(F)(F)F)cc4)c3F)c12` [P-1023, N-[3-(4-Cyano-7H-pyrrolo[2,3-d]pyrimidine-5-carbonyl)-2,4-difluoro-phenyl]-4-trifluoromethyl-benzenesulfonamide], on B-Raf V600E, the IC50 was greater than 0.1 µM and the “Biochemical activity ratio V600E/C” value is given as greater than 10. The molecule further registered an IC50 on c-Raf-1 greater than 0.1 µM. In addition, in the data set on B-Raf [2], the “Biochemical activity ratio B/V600E” value is listed as 0.1-10 and the “Biochemical activity ratio B/C” value is given as 0.1-10. The molecule also gave an IC50 against B-Raf [3] greater than 0.1 µM.

Take `O=C(c1c(F)ccc(NS(=O)(=O)c2ccc(C(F)(F)F)cc2)c1F)c1c[nH]c2ncnc(OC3CCOCC3)c12` [P-1021, N-{2,4-Difluoro-3-[4-(tetrahydro-pyran-4-yloxy)-7H-pyrrolo[2,3-d]pyrimidine-5-carbonyl]-phenyl}-4-trifluoromethyl-benzenesulfonamide]: at B-Raf V600E, the IC50 was greater than 0.1 µM and the “Biochemical activity ratio V600E/C” value is on record as greater than 10. Besides, on c-Raf-1, the IC50 was less than 0.1 µM. Further, in the data set on B-Raf [2], the “Biochemical activity ratio B/V600E” value was 0.1-10 and the “Biochemical activity ratio B/C” value is recorded as greater than 10. Also, the IC50 against B-Raf [3] is greater than 0.1 µM.

Consider `CCCS(=O)(=O)Nc1ccc(F)c(C(=O)c2c[nH]c3ncnc(O)c23)c1F` [P-1022, Propane-1-sulfonic acid [2,4-difluoro-3-(4-hydroxy-7H-pyrrolo[2,3-d]pyrimidine-5-carbonyl)-phenyl]-amide], for which, on B-Raf V600E, the IC50 was greater than 0.1 µM and the “Biochemical activity ratio V600E/C” value is reported as 0.1-10. On c-Raf-1, this molecule showed an IC50 of less than 0.1 µM. Moreover, in the data set on B-Raf [2], the “Biochemical activity ratio B/V600E” value was 0.1-10 and the “Biochemical activity ratio B/C” value was 0.1-10. The molecule also gave a half-maximal inhibitory concentration (IC50) against B-Raf [3] greater than 0.1 µM.

Consider `O=C(c1c(F)ccc(NS(=O)(=O)c2ccc(C(F)(F)F)cc2)c1F)c1c[nH]c2nccc(C(F)(F)F)c12` [P-2016, N-[2,4-Difluoro-3-(4-trifluoromethyl-1H-pyrrolo[2,3-b]pyridine-3-carbonyl)-phenyl]-4-trifluoromethyl-benzenesulfonamide], for which, on B-Raf V600E, the IC50 was greater than 0.1 µM and the “Biochemical activity ratio V600E/C” value is greater than 10. On c-Raf-1, this molecule registered an IC50 of less than 0.1 µM. Further, in the data set on B-Raf [2], the “Biochemical activity ratio B/V600E” value is given as 0.1-10 and the “Biochemical activity ratio B/C” value is 0.1-10. The molecule also had an IC50 at B-Raf [3] greater than 0.1 µM. In addition, in data set [1], the “turbidity threshold (L, M, H) 1.4” value is listed as “L (low solubility if the threshold concentration is <31.3 μM)”; the “turbidity threshold (L, M, H) 4.5” value is “L (low solubility if the threshold concentration is <31.3 μM)”; the “turbidity threshold (L, M, H) 6.8” value is “L (low solubility if the threshold concentration is <31.3 μM)”; the “turbidity threshold (L, M, H) 7.4” value was “M (moderate solubility if the threshold concentration is 31.3 μM to 250 μM)”.

`CCCS(=O)(=O)Nc1ccc(F)c(C(=O)c2c[nH]c3nccc(C(F)(F)F)c23)c1F` [P-2015, Propane-1-sulfonic acid [2,4-difluoro-3-(4-trifluoromethyl-1H-pyrrolo[2,3-b]pyridine-3-carbonyl)-phenyl]-amide] displayed a half-inhibitory concentration (IC50) at c-Raf-1 of less than 0.1 µM. For the same molecule, in data set [1], the “turbidity threshold (L, M, H) 1.4” value is listed as “M (moderate solubility if the threshold concentration is 31.3 μM to 250 μM)”; the “turbidity threshold (L, M, H) 4.5” value is given as “M (moderate solubility if the threshold concentration is 31.3 μM to 250 μM)”; the “turbidity threshold (L, M, H) 6.8” value is “M (moderate solubility if the threshold concentration is 31.3 μM to 250 μM)”; the “turbidity threshold (L, M, H) 7.4” value is reported as “M (moderate solubility if the threshold concentration is 31.3 μM to 250 μM)”. Moreover, the IC50 on CYP2C19 is greater than 10000 nM.

In the case of `COc1ccc(S(=O)(=O)Nc2ccc(F)c(C(=O)c3c[nH]c4ncnc(OC)c34)c2F)cn1` [P-1018, 6-Methoxy-pyridine-3-sulfonic acid [2,4-difluoro-3-(4-methoxy-7H-pyrrolo[2,3-d]pyrimidine-5-carbonyl)-phenyl]-amide], on B-Raf V600E, the half-inhibitory concentration (IC50) is greater than 0.1 µM and the “Biochemical activity ratio V600E/C” value was 0.1-10. For the same molecule, the IC50 on c-Raf-1 is greater than 0.1 µM. In the data set with B-Raf [2], the “Biochemical activity ratio B/V600E” value is greater than 10 and the “Biochemical activity ratio B/C” value is greater than 10. On B-Raf [3], this molecule showed an IC50 greater than 0.1 µM.

On to `CCc1ccc(S(=O)(=O)Nc2ccc(F)c(C(=O)c3c[nH]c4ncnc(C)c34)c2F)cc1` [P-1019, N-[2,4-Difluoro-3-(4-methyl-7H-pyrrolo[2,3-d]pyrimidine-5-carbonyl)-phenyl]-4-ethyl-benzenesulfonamide], for which the IC50 at B-Raf V600E, against c-Raf-1 and against B-Raf [3] was greater than 0.1 µM each time. For the same molecule, the “Biochemical activity ratio V600E/C” value at B-Raf V600E was 0.1-10. Further, the “Biochemical activity ratio B/V600E” value with B-Raf [2] is 0.1-10. In addition, in the data set with B-Raf [2], the “Biochemical activity ratio B/C” value was 0.1-10.

For `COc1ccc(S(=O)(=O)Nc2ccc(F)c(C(=O)c3c[nH]c4ncnc(C)c34)c2F)cc1F` [P-1036, N-[2,4-Difluoro-3-(4-methyl-7H-pyrrolo[2,3-d]pyrimidine-5-carbonyl)-phenyl]-3-fluoro-4-methoxy-benzenesulfonamide], at B-Raf V600E, the 50% inhibitory concentration (IC50) was less than 0.1 µM and the “Biochemical activity ratio V600E/C” value is reported as 0.1-10. Also, the IC50 against c-Raf-1 was less than 0.1 µM. In the data set with B-Raf [2], the “Biochemical activity ratio B/V600E” value was greater than 10 and the “Biochemical activity ratio B/C” value is recorded as greater than 10. Also, the IC50 against B-Raf [3] was greater than 0.1 µM.

Take `O=C(c1c(F)ccc(NS(=O)(=O)c2ccc(C(F)(F)F)cc2)c1F)c1c[nH]c2ncnc(N3CCOCC3)c12` [P-1017, N-[2,4-Difluoro-3-(4-morpholin-4-yl-7H-pyrrolo[2,3-d]pyrimidine-5-carbonyl)-phenyl]-4-trifluoromethyl-benzenesulfonamide]: the IC50 at B-Raf V600E, on c-Raf-1 and at B-Raf [3] was greater than 0.1 µM throughout. For the same molecule, the “Biochemical activity ratio V600E/C” value at B-Raf V600E is reported as greater than 10. For the same molecule, the “Biochemical activity ratio B/V600E” value in the data set on B-Raf [2] was 0.1-10. Besides, in the data set on B-Raf [2], the “Biochemical activity ratio B/C” value is 0.1-10.
